Laboratory results taken from patent US20230033195A1, “METHODS AND COMPOSITIONS FOR IMPROVING COGNITIVE FUNCTION” (THE JOHNS HOPKINS UNIVERSITY, priority 2011, published 2023).

Test system: aMCI subjects
Test: explicit 3-alternative forced choice task
Type: in vivo, human
Settings: 125 mg twice a day for two weeks, vs placebo, p = 0.039
From the text: Each bar represents the proportion of the subjects responses (old, similar, or new) when presented with a lure image.
There are various tests known in the art for assessing cognitive function in humans, for example and without limitation, the clinical global impression of change scale (CIBIC-plus scale); the Mini Mental State Exam (MMSE); the Neuropsychiatric Inventory (NPI); the Clinical Dementia Rating Scale (CDR); the Cambridge Neuropsychological Test Automated Battery (CANTAB); the Sandoz Clinical Assessment-Geriatric (SCAG), the Buschke Selective Reminding Test (Buschke and Fuld, 1974); the Verbal Paired Associates subtest; the Logical Memory subtest; the Visual Reproduction subtest of the Wechsler Memory Scale-Revised (WMS-R) (Wechsler, 1997); or the Benton Visual Retention Test. See Folstein et al., J Psychiatric Res 12: 189-98, (1975); Robbins et al., Dementia 5: 266-81, (1994); Rey, L'examen clinique en psychologie, (1964); Kluger et al., J Geriatr Psychiatry Neurol 12:168-79, (1999); Marquis et al., 2002 and Masur et al., 1994. Another example of a cognitive test in humans is the explicit 3-alternative forced choice task. […]
The activity of the subject's medial temporal lobe is measured by functional MRI during the subject's participation in an explicit 3-alternative forced choice task, where participants view novel, repeated and similar ("lure") stimuli. […]

SMILES: CC[C@@H](C(N)=O)N1CCCC1=O [levetiracetam, (2S)-2-(2-oxopyrrolidin-1-yl) butanamide]
- performance in the explicit 3-alternative forced choice task (similar vs old responses to lures): improves significantly
